Source: article PMC10964431 (European journal of medicinal chemistry, 2024)
Entries after “also recorded” stand apart in the source; their conditions may differ.

Assays:
SARS-CoV-2 3CLpro = SARS-CoV-2 3CLpro (Severe acute respiratory syndrome coronavirus 2, UniProt P0DTD1); assay: SARS-CoV-2 3CLpro; assay type: biochemical
SARS-CoV-2 = assay type: cell-based; settings: VeroE6 cells
SARS-CoV-2^WK−521 = assay: Immunocytochemistry assay of infected VeroE6 cells; assay type: cell-based; settings: for infected cells by immunocytochemistry: VeroE6 cells exposed to SARS-CoV-2^WK−521; for infectivity and cytopathic effect of SARS-CoV-2: VeroE6^TMPRSS2 cells

Structure (SMILES) | infected cells by immunocytochemistry (SARS-CoV-2^WK−521; 1 μM compound) | infected cells by immunocytochemistry (SARS-CoV-2^WK−521; 10 μM compound) | infected cells by immunocytochemistry (SARS-CoV-2^WK−521; 100 μM compound) | infectivity and cytopathic effect of SARS-CoV-2 (SARS-CoV-2^WK−521) | other results
CC(C)(C)[C@H](NC(=O)C(F)(F)F)C(=O)N1C[C@H]2[C@@H]([C@H]1C(=O)N(C(=O)C(F)(F)F)[C@H](C#N)C[C@@H]1CCNC1=O)C2(C)C [Compound 5h, (1R,2S,5S)-N-((S)-1-Cyano-2-((S)-2-oxopyrrolidin-3-yl)ethyl)-3-((S)-3,3-dimethyl-2-(2,2,2-trifluoroacetamido)butanoyl)-6,6-dimethyl-N-(2,2,2-trifluoroacetyl)-3-azabicyclo[3.1.0] hexane-2-carboxamide] | – | – | – | – | Mpro inhibitory activity (in words) (SARS-CoV-2 3CLpro): no appreciable; antiviral activity (in words) (SARS-CoV-2): no appreciable
CC(C)(C)[C@H](NC(=O)OCc1cccnc1)C(=O)N1C[C@H]2[C@@H]([C@H]1C(=O)N[C@H](C#N)C[C@@H]1CCNC1=O)C2(C)C [Compound 5k, Pyridin-3-ylmethyl((2S)-1-((1R,2S,5S)-2-((1-cyano-2-((S)-2-oxopyrrolidin-3-yl)ethyl)carbamoyl)-6,6-dimethyl-3-azabicyclo[3.1.0]hexan-3-yl)-3,3-dimethyl-1-oxobutan-2-yl)carbamate] | – | – | – | – | improvement of antiviral activity compared to benzyl carbamate derivative 5i (SARS-CoV-2): > 8 fold
CC(C)(C)[C@H](NC(=O)C(F)(F)F)C(=O)N1C[C@H]2[C@@H]([C@H]1C(=O)N[C@H](C#N)C[C@@H]1CCCNC1=O)C2(C)C [Compound 5e, (1R,2S,5S)-N-((S)-1-Cyano-2-((S)-2-oxopiperidin-3-yl)ethyl)-3-((S)-3,3-dimethyl-2-(2,2,2-trifluoroacetamido)butanoyl)-6,6-dimethyl-3-azabicyclo[3.1.0]hexane-2-carboxamide] | some infected cells were observed | hardly any infected cells | hardly any infected cells | significantly reduced; also recorded: potently blocked | improvement of Mpro inhibitory activity over nirmatrelvir 1 (SARS-CoV-2 3CLpro; ratio of Ki values): more than 6 fold; toxicity (VeroE6 cells): without significant toxicity
CC(C)(C)[C@H](NC(=O)C(F)(F)F)C(=O)N1C[C@H]2[C@@H]([C@H]1C(=O)N[C@H](C#N)C[C@@H]1CCNC1=O)C2(C)C [Nirmatrelvir, (1R,2S,5S)-N-((S)-1-Cyano-2-((S)-2-oxopyrrolidin-3-yl)ethyl)-3-((S)-3,3-dimethyl-2-(2,2,2-trifluoroacetamido)butanoyl)-6,6-dimethyl-3-azabicyclo[3.1.0]hexane-2-carboxamide, reference compound] | complete viral breakthrough | hardly any infected cells | hardly any infected cells | potently blocked | –
CC(C)(C)NC(=O)N[C@H](C(=O)N1C[C@H]2[C@@H]([C@H]1C(=O)N[C@H](C#N)C[C@@H]1CCNC1=O)C2(C)C)C(C)(C)C [Compound 5m, (1R,2S,5S)-3-((S)-2-(3-(Tert-butyl)ureido)-3,3-dimethylbutanoyl)-N-((S)-1-cyano-2-((S)-2-oxopyrrolidin-3-yl)ethyl)-6,6-dimethyl-3-azabicyclo[3.1.0]hexane-2-carboxamide] | – | – | – | – | loss of antiviral activity compared to Boc-derivative 5g (SARS-CoV-2): 3 fold
CC(C)(C)[C@H](NC(=O)C(Cl)(Cl)Cl)C(=O)N1C[C@H]2[C@@H]([C@H]1C(=O)N[C@H](C#N)C[C@@H]1CCCNC1=O)C2(C)C [Compound 5f, (1R,2S,5S)-N-((S)-1-Cyano-2-((S)-2-oxopiperidin-3-yl)ethyl)-3-((S)-3,3-dimethyl-2-(2,2,2-trichloroacetamido)butanoyl)-6,6-dimethyl-3-azabicyclo[3.1.0]hexane-2-carboxamide] | – | – | – | – | improvement in antiviral activity over nirmatrelvir 1 (SARS-CoV-2; ratio of EC50 values): over 7 fold
